From patent US20240285571A1, “METHODS OF TREATING BONE INFECTIONS” (MICROBION CORPORATION, priority 2020, published 2024)
In brackets after ≈: the same amount, converted by molar mass. Read-outs that look alike come from different tables or passages of the source.

What was measured:
Assay type in all cases: cell-based
Klebsiella pneumoniae = test: Broth microdilution MIC (Example 6); conditions: Klebsiella pneumoniae
Outline: (§1)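 Activity was measured by CLSI broth microdilution using 2-fold serial dilutions and an inoculum of about 5×10^5 CFU/mL. Plates were incubated at 35 °C for 16 to 20 hr. The MIC is the lowest drug concentration that prevented visible growth.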

Pseudomonas aeruginosa = test: Broth microdilution MIC (Example 6); conditions: Pseudomonas aeruginosa
Outline: as §1

Escherichia coli = test: Broth microdilution MIC (Example 6); conditions: Escherichia coli
Outline: as §1

Acinetobacter baumannii = test: Broth microdilution MIC (Example 6); conditions: Acinetobacter baumannii
Outline: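 CLSI broth microdilution in cation-adjusted Mueller Hinton broth, test agents 0.06-64 μg/mL from DMSO stocks, inoculum approx. 5×10^5 CFU/mL. Incubation 35° C for 16–20 hr; MIC taken as lowest concentration inhibiting visible growth.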

[1] = test system: relevant ATCC QC organisms; test: Broth microdilution MIC, QC (Example 6)
Outline: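 QC strains were tested per CLSI broth microdilution in cation-adjusted Mueller Hinton broth, with Ca2+ supplemented for daptomycin, at about 5×10^5 CFU/mL. Incubation was at 35° C for 16–20 hr, or 24 hr for vancomycin against S. aureus. The MIC was the lowest concentration inhibiting visible growth.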

[2] = K. pneumoniae CDC 135, ESBL/VIM, read-out: MIC
[3] = K. pneumoniae MMX 9029, ESBL, read-out: MIC
[4] = P. aeruginosa isolate CDC 230, β-lactamase type VIM/OXA, read-out: MIC
[5] = P. aeruginosa isolate CDC 241, β-lactamase type IMP/OXA, read-out: MIC
[6] = P. aeruginosa isolate CDC 439, β-lactamase type IMP, read-out: MIC
[7] = P. aeruginosa isolate CDC 444, β-lactamase type VIM, read-out: MIC
[8] = P. aeruginosa isolate CDC 457, β-lactamase type VIM, read-out: MIC
[9] = ATCC35218, E. coli ATCC 35218, ESBL, read-out: MIC
[10] = E. coli MMX 5755, ESBL, read-out: MIC
[11] = E. coli MMX 5756, ESBL, read-out: MIC
[12] = E. coli MMX 5758, ESBL, read-out: MIC

With `OCC(S)CS.[Bi]` (stereo not shown) [MB-2B, bismuth-2,3-dimercaptopropanol] the MIC (Klebsiella pneumoniae; ATCCBAA1705, K. pneumoniae ATCC BAA-1705, ESBL/KPC) was 4 µg/mL, the MIC (Klebsiella pneumoniae; K. pneumoniae CDC 112, KPC) was 4 µg/mL and the MIC (Klebsiella pneumoniae; K. pneumoniae CDC 113, ESBL/KPC) was 32 µg/mL. The MIC (Klebsiella pneumoniae; K. pneumoniae CDC 115, ESBL/KPC) was 16 µg/mL, the MIC (Klebsiella pneumoniae; K. pneumoniae CDC 120, ESBL/KPC) was 4 µg/mL and the MIC (Klebsiella pneumoniae; K. pneumoniae CDC 126, ESBL/KPC) was 32 µg/mL. It also gave an MIC (Klebsiella pneumoniae; K. pneumoniae CDC 129, ESBL/KPC) of 4 µg/mL, an MIC (Klebsiella pneumoniae; [2]) of 8 µg/mL and an MIC (Klebsiella pneumoniae; K. pneumoniae CDC 138, ESBL/NDM) of 16 µg/mL. It also gave an MIC (Klebsiella pneumoniae; K. pneumoniae CDC 158, ESBL/NDM/OXA) of 4 µg/mL, an MIC (Klebsiella pneumoniae; [3]) of 2 µg/mL and an MIC (Pseudomonas aeruginosa; [4]) of 4 µg/mL. For the same compound, the MIC (Pseudomonas aeruginosa; P. aeruginosa isolate CDC 231, β-lactamase type KPC/OXA) was 16 µg/mL, the MIC (Pseudomonas aeruginosa; [5]) was 32 µg/mL and the MIC (Pseudomonas aeruginosa; P. aeruginosa isolate CDC 246, β-lactamase type NDM/OXA) was 8 µg/mL. It also gave an MIC (Pseudomonas aeruginosa; P. aeruginosa isolate CDC 250, β-lactamase type NDM/OXA) of 8 µg/mL, an MIC (Pseudomonas aeruginosa; P. aeruginosa isolate CDC 356, β-lactamase type KPC) of 4 µg/mL and an MIC (Pseudomonas aeruginosa; [6]) of 4 µg/mL. For the same compound, the MIC (Pseudomonas aeruginosa; [7]) was 4 µg/mL, the MIC (Pseudomonas aeruginosa; [8]) was 32 µg/mL and the MIC (Pseudomonas aeruginosa; P. aeruginosa isolate CDC 516, β-lactamase type KPC/AmpC) was 4 µg/mL. It also gave an MIC (Pseudomonas aeruginosa; P. aeruginosa isolate CDC 518, β-lactamase type KPC/AmpC) of 4 µg/mL, an MIC (Escherichia coli; [9]) of 2 µg/mL and an MIC (Escherichia coli; ATCCBAA2471, E. coli ATCC BAA-2471, NDM) of 2 µg/mL. It also gave an MIC (Escherichia coli; E. coli CDC 114, ESBL/KPC) of 2 µg/mL, an MIC (Escherichia coli; E. coli CDC 118, ESBL/NDM) of 4 µg/mL and an MIC (Escherichia coli; E. coli CDC 435, NDM) of 2 µg/mL. It also gave an MIC (Escherichia coli; E. coli CDC 451, KPC) of 2 µg/mL, an MIC (Escherichia coli; E. coli CDC 503, ESBL/NDM) of 2 µg/mL and an MIC (Escherichia coli; E. coli MMX 5745, KPC) of 4 µg/mL. For the same compound, the MIC (Escherichia coli; [10]) was 4 µg/mL, the MIC (Escherichia coli; [11]) was 2 µg/mL and the MIC (Escherichia coli; [12]) was 4 µg/mL. For the same compound, the MIC (Acinetobacter baumannii; A. baumannii isolate CDC 273, β-lactamase type ESBL/OXA) was 32 µg/mL, the MIC (Acinetobacter baumannii; A. baumannii isolate CDC 274, β-lactamase type ESBL/OXA) was 32 µg/mL and the MIC (Acinetobacter baumannii; A. baumannii isolate CDC 275, β-lactamase type ESBL/OXA) was 32 µg/mL. The MIC (Acinetobacter baumannii; A. baumannii isolate CDC 277, β-lactamase type ESBL/OXA) was greater than 16 µg/mL, the MIC (Acinetobacter baumannii; A. baumannii isolate CDC 284, β-lactamase type ESBL/OXA) was greater than 16 µg/mL and the MIC (Acinetobacter baumannii; A. baumannii isolate CDC 307, β-lactamase type OXA) was 32 µg/mL. For the same compound, the MIC (Acinetobacter baumannii; A. baumannii isolate CDC 308, β-lactamase type ESBL/OXA) was 32 µg/mL, the MIC (Acinetobacter baumannii; A. baumannii isolate CDC 311, β-lactamase type OXA) was 32 µg/mL and the MIC (Acinetobacter baumannii; A. baumannii isolate CDC 312, β-lactamase type OXA) was 32 µg/mL. The MIC (Acinetobacter baumannii; A. baumannii isolate CDC 313, β-lactamase type ESBL/OXA) was 32 µg/mL, the MIC (Acinetobacter baumannii; NCTC13304, A. baumannii isolate NCTC 13304, β-lactamase type OXA) was greater than 16 µg/mL and the MIC ([1]; Escherichia coli, ATCC25922) was 2 µg/mL. The MIC ([1]; Escherichia coli, ATCC35218) was 2 µg/mL, the MIC ([1]; Klebsiella pneumoniae, ATCCBAA1705) was 4 µg/mL and the MIC ([1]; Pseudomonas aeruginosa, ATCC27853) was 2 µg/mL. For the same compound, the MIC ([1]; Staphylococcus aureus, ATCC29213) was 1 µg/mL.

`C[C@@H](O)[C@H]1C(=O)N2C(C(=O)O)=C(S[C@@H]3CN[C@H](C(=O)N(C)C)C3)[C@H](C)[C@H]12` [Meropenem] showed an MIC (Klebsiella pneumoniae; ATCCBAA1705, K. pneumoniae ATCC BAA-1705, ESBL/KPC, read-out: MIC) of 8 µg/mL (≈ 20.9 µM), an MIC (Klebsiella pneumoniae; K. pneumoniae CDC 112, KPC, read-out: MIC) greater than 8 µg/mL and an MIC (Klebsiella pneumoniae; K. pneumoniae CDC 113, ESBL/KPC, read-out: MIC) greater than 8 µg/mL. It also gave an MIC (Klebsiella pneumoniae; K. pneumoniae CDC 115, ESBL/KPC, read-out: MIC) greater than 8 µg/mL, an MIC (Klebsiella pneumoniae; K. pneumoniae CDC 120, ESBL/KPC, read-out: MIC) greater than 8 µg/mL and an MIC (Klebsiella pneumoniae; K. pneumoniae CDC 126, ESBL/KPC, read-out: MIC) of 4 µg/mL (≈ 10.4 µM). It also gave an MIC (Klebsiella pneumoniae; K. pneumoniae CDC 129, ESBL/KPC, read-out: MIC) of 8 µg/mL (≈ 20.9 µM), an MIC (Klebsiella pneumoniae; [2]) of 1 µg/mL (≈ 2.61 µM) and an MIC (Klebsiella pneumoniae; K. pneumoniae CDC 138, ESBL/NDM, read-out: MIC) greater than 8 µg/mL. It also gave an MIC (Klebsiella pneumoniae; K. pneumoniae CDC 158, ESBL/NDM/OXA, read-out: MIC) greater than 8 µg/mL, an MIC (Klebsiella pneumoniae; [3]) of 0.015 µg/mL (≈ 0.0391 µM) and an MIC (Pseudomonas aeruginosa; [4]) greater than 8 µg/mL. For the same compound, the MIC (Pseudomonas aeruginosa; P. aeruginosa isolate CDC 231, β-lactamase type KPC/OXA, read-out: MIC) was greater than 8 µg/mL, the MIC (Pseudomonas aeruginosa; [5]) was greater than 8 µg/mL and the MIC (Pseudomonas aeruginosa; P. aeruginosa isolate CDC 246, β-lactamase type NDM/OXA, read-out: MIC) was greater than 8 µg/mL. For the same compound, the MIC (Pseudomonas aeruginosa; P. aeruginosa isolate CDC 250, β-lactamase type NDM/OXA, read-out: MIC) was greater than 8 µg/mL, the MIC (Pseudomonas aeruginosa; P. aeruginosa isolate CDC 356, β-lactamase type KPC, read-out: MIC) was greater than 8 µg/mL and the MIC (Pseudomonas aeruginosa; [6]) was greater than 8 µg/mL. It also gave an MIC (Pseudomonas aeruginosa; [7]) greater than 8 µg/mL, an MIC (Pseudomonas aeruginosa; [8]) greater than 8 µg/mL and an MIC (Pseudomonas aeruginosa; P. aeruginosa isolate CDC 516, β-lactamase type KPC/AmpC, read-out: MIC) greater than 8 µg/mL. The MIC (Pseudomonas aeruginosa; P. aeruginosa isolate CDC 518, β-lactamase type KPC/AmpC, read-out: MIC) was greater than 8 µg/mL, the MIC (Escherichia coli; [9]) was no more than 0.008 µg/mL and the MIC (Escherichia coli; ATCCBAA2471, E. coli ATCC BAA-2471, NDM, read-out: MIC) was greater than 8 µg/mL. It also gave an MIC (Escherichia coli; E. coli CDC 114, ESBL/KPC, read-out: MIC) of 2 µg/mL (≈ 5.22 µM), an MIC (Escherichia coli; E. coli CDC 118, ESBL/NDM, read-out: MIC) of 0.06 µg/mL (≈ 0.156 µM) and an MIC (Escherichia coli; E. coli CDC 435, NDM, read-out: MIC) greater than 8 µg/mL. It also gave an MIC (Escherichia coli; E. coli CDC 451, KPC, read-out: MIC) of 1 µg/mL (≈ 2.61 µM), an MIC (Escherichia coli; E. coli CDC 503, ESBL/NDM, read-out: MIC) of 8 µg/mL (≈ 20.9 µM) and an MIC (Escherichia coli; E. coli MMX 5745, KPC, read-out: MIC) of 2 µg/mL (≈ 5.22 µM). For the same compound, the MIC (Escherichia coli; [10]) was 0.015 µg/mL (≈ 0.0391 µM), the MIC (Escherichia coli; [11]) was no more than 0.008 µg/mL and the MIC (Escherichia coli; [12]) was no more than 0.008 µg/mL. The MIC (Acinetobacter baumannii; A. baumannii isolate CDC 273, β-lactamase type ESBL/OXA, read-out: MIC) was greater than 8 µg/mL, the MIC (Acinetobacter baumannii; A. baumannii isolate CDC 274, β-lactamase type ESBL/OXA, read-out: MIC) was greater than 8 µg/mL and the MIC (Acinetobacter baumannii; A. baumannii isolate CDC 275, β-lactamase type ESBL/OXA, read-out: MIC) was greater than 8 µg/mL. It also gave an MIC (Acinetobacter baumannii; A. baumannii isolate CDC 277, β-lactamase type ESBL/OXA, read-out: MIC) greater than 8 µg/mL, an MIC (Acinetobacter baumannii; A. baumannii isolate CDC 284, β-lactamase type ESBL/OXA, read-out: MIC) greater than 8 µg/mL and an MIC (Acinetobacter baumannii; A. baumannii isolate CDC 307, β-lactamase type OXA, read-out: MIC) of 8 µg/mL. The MIC (Acinetobacter baumannii; A. baumannii isolate CDC 308, β-lactamase type ESBL/OXA, read-out: MIC) was 8 µg/mL, the MIC (Acinetobacter baumannii; A. baumannii isolate CDC 311, β-lactamase type OXA, read-out: MIC) was greater than 8 µg/mL and the MIC (Acinetobacter baumannii; A. baumannii isolate CDC 312, β-lactamase type OXA, read-out: MIC) was 4 µg/mL. It also gave an MIC (Acinetobacter baumannii; A. baumannii isolate CDC 313, β-lactamase type ESBL/OXA, read-out: MIC) greater than 8 µg/mL, an MIC (Acinetobacter baumannii; NCTC13304, A. baumannii isolate NCTC 13304, β-lactamase type OXA, read-out: MIC) greater than 8 µg/mL and an MIC ([1]; Escherichia coli, ATCC25922, E. coli ATCC 25922, read-out: MIC) of no more than 0.008 µg/mL. For the same compound, the MIC ([1]; Escherichia coli, ATCC35218, E. coli ATCC 35218, read-out: MIC) was no more than 0.008 µg/mL, the MIC ([1]; Klebsiella pneumoniae, ATCCBAA1705, K. pneumoniae ATCC BAA-1705, read-out: MIC) was 8 µg/mL and the MIC ([1]; Pseudomonas aeruginosa, ATCC27853, P. aeruginosa ATCC 27853, read-out: MIC) was 0.25 µg/mL.
